Assay results reported in PMC5825169 (PLoS Pathogens, 2018).
“And” between values parts separate entries of the source, which are not always exact repeats. Equal values may be shown once. “Also recorded” adds a separate entry of the source. Read-outs that look alike come from different tables or passages of the source.

Assays:
[1] = target: T1, VCC β-prism lectin domain (Vibrio cholerae serotype O1, UniProt P09545); details: read-out: VCC β-prism affinity; cited from earlier work
RbmC2 β-prism domain [2] = target: T2, RbmC2 β-prism domain (Vibrio cholerae, UniProt Q9KTH2); assay: biochemical; type: binding
RbmC1 β-prism domain = RbmC1 β-prism domain (Vibrio cholerae, UniProt Q9KTH2); assay: biochemical; type: binding
RbmC2 β-prism domain [3] = target: T2, RbmC2 β-prism domain; assay: biochemical; type: binding; details: RbmC2 β-prism affinity
[4] = target: T1, VCC β-prism lectin domain; assay: biochemical; type: binding
[5] = target: T1, VCC β-prism lectin domain; assay: biochemical; type: binding; remark: listed apart in the source
[6] = target: RbmC1-GFPUV fusion (Vibrio cholerae El Tor strain N16961); assay: ITC
[7] = target: RbmC2-GFPUV fusion (Vibrio cholerae El Tor strain N16961); assay: ITC

Molecule: CO[C@H]1O[C@H](CO)[C@@H](O)[C@H](O)[C@@H]1O [Me-α-mannose, methyl α-D-mannopyranoside]
- Kd [1]: 2700 µM
- Kd (RbmC2 β-prism domain [2]; RbmC2 β-prism affinity): 179 µM and 503 µM
- Kd (RbmC1 β-prism domain; RbmC1 β-prism affinity): 503 µM and 179 µM

Molecule: CC(=O)N[C@H]1[C@H](O[C@@H]2C(O)O[C@H](CO)[C@@H](O)[C@@H]2O)O[C@H](CO)[C@@H](O)[C@@H]1O (stereo partly drawn) [GlcNAc-Man, N-acetylglucosaminyl-β-1,2-mannose]
- Kd (RbmC2 β-prism domain [2]; RbmC2 β-prism affinity): 159 µM

Molecule: Asialofetuin
- Kd (RbmC2 β-prism domain [2]; read-out: RbmC2 β-prism affinity (apparent)): 0.0184 µM
- Kd (RbmC1 β-prism domain; read-out: RbmC1 β-prism affinity (apparent)): 0.0159 µM

Molecule: CC(=O)N[C@H]1[C@H](O[C@H]2[C@H](O)[C@@H](NC(C)=O)C(O)O[C@@H]2CO)O[C@H](CO)[C@@H](O[C@@H]2O[C@H](CO[C@H]3O[C@H](CO)[C@@H](O)[C@H](O)[C@@H]3O[C@@H]3O[C@H](CO)[C@@H](O)[C@H](O)[C@H]3NC(C)=O)[C@@H](O)[C@H](O[C@H]3O[C@H](CO)[C@@H](O)[C@H](O)[C@@H]3O[C@@H]3O[C@H](CO)[C@@H](O)[C@H](O)[C@H]3NC(C)=O)[C@@H]2O)[C@@H]1O (some centres unmarked) [NGA2, GlcNAcβ1-2Manα1-6(GlcNAcβ1-2Manα1–3)Manβ1-4GlcNAcβ1-4GlcNAc]
- Kd (RbmC2 β-prism domain [3]): 0.0015 ± 0.0005 µM
- Kd [4]: 0.2 µM

Molecule: OC[C@H]1O[C@H](OC[C@H]2OC(O)[C@@H](O)[C@@H](O[C@H]3O[C@H](CO)[C@@H](O)[C@H](O)[C@@H]3O)[C@@H]2O)[C@@H](O)[C@@H](O)[C@@H]1O (stereo partly drawn) [Mannotriose, 1,3-α-1,6-α-D-mannotriose]
- Kd [5]: 229 µM
- Kd (RbmC2 β-prism domain [2]; RbmC2 β-prism affinity): 4.1 µM
- Kd (RbmC1 β-prism domain; RbmC1 β-prism affinity): 0.6 µM

Molecule: CC(=O)N[C@H]1C(O)O[C@H](CO)[C@@H](O[C@@H]2O[C@H](CO)[C@H](O)[C@H](O)[C@H]2O)[C@@H]1O (stereo partly drawn) [LacNAc, N-acetyl-D-lactosamine]
- VCC β-prism binding [5]: Did not bind; also recorded: unable to detect binding
- RbmC2 β-prism binding (RbmC2 β-prism domain [2]): Did not bind; also recorded: unable to observe binding
- RbmC1 β-prism binding (RbmC1 β-prism domain): Did not bind; also recorded: unable to observe binding

Molecule: CC(=O)N[C@H]1[C@H](O[C@@H]2[C@@H](OC[C@H]3OC(O)[C@@H](O)[C@@H](O[C@H]4O[C@H](CO)[C@@H](O)[C@H](O)[C@@H]4O[C@@H]4O[C@H](CO)[C@@H](O)[C@H](O)[C@H]4NC(C)=O)[C@@H]3O)O[C@H](CO)[C@@H](O)[C@@H]2O)O[C@H](CO)[C@@H](O)[C@@H]1O (some centres unmarked) [Pentasaccharide, N-linked core pentasaccharide]
- Kd (RbmC2 β-prism domain [3]): 0.0011 µM and 0.0015 µM

B1: bovine asialofetuin (natural protein)
chain: IPLDPVAGYKEPACDDPDTEQAALAAVDYINKHLPRGYKHTLNQIDSVKVWPRRPTGEVYDIEIDTLETTCHVLDPTPLANCSVRQQTQHAVEGDCDIHVLKQDGQFSVLFTKCDSSPDSAEDVRKLCPDCPLLAPLNDSRVVHAVEVALATFNAESNGSYLQLVEISRAQFVPLPVSVSVEFAVAATDCIAKEVVDPTKCNLLAEKQYGFCKGSVIQKALGGEDVRVTCTLFQTQPVIPQPQPDGAEAEAPSAVPDAAGPTPSAAGPPVASVVVGPSVVAVPLPLHRAHYDLRHTFSGVASVESSSGEAFHVGKTPIVGQPSIPGGPVRLCPGRIRYFKI
modifications: three glycosylation sites occupied by heterogeneous mixtures of bi- and tri-antennary glycans (asialo form)
- Kd [6]: 0.0159 µM
- Kd [7]: 0.0184 µM
